From patent US11739101B2, “Bifunctional degraders of hematopoietic progenitor kinase and therapeutic uses thereof” (Nurix Therapeutics, Inc., priority 2020, dated 2023)

target: T1, HPK1 (Homo sapiens, UniProt Q92918); experiment: HPK1 Cellular HiBiT Degradation Assay; format: cell-based; conditions: HiBiT-tagged HPK1 Jurkat cells, 24 hours, 10 uM to 0.1 nM; Dmax = 100 minus lowest % HPK1 remaining vs DMSO vehicle
T1 construct: A HiBiT tag was introduced by CRISPR on the N terminus of HPK1 in Jurkat cells; host or cells: Jurkat (ATCC TIB-152), monoclonal CRISPR HiBiT knock-in line
Method in brief: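 Dmax is derived from four-parameter curves of % HPK1 remaining, as 100 minus the lowest value, normalized to DMSO-treated cells with parental Jurkat background subtracted. HiBiT-HPK1 knock-in Jurkat cells got compound for 24 hours (final 10 uM to 0.1 nM, 11 points) before lytic HiBiT luminescence. Cytotoxicity was checked on parallel CellTiter-Glo plates.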

T1 sequence (Q92918 whole entry): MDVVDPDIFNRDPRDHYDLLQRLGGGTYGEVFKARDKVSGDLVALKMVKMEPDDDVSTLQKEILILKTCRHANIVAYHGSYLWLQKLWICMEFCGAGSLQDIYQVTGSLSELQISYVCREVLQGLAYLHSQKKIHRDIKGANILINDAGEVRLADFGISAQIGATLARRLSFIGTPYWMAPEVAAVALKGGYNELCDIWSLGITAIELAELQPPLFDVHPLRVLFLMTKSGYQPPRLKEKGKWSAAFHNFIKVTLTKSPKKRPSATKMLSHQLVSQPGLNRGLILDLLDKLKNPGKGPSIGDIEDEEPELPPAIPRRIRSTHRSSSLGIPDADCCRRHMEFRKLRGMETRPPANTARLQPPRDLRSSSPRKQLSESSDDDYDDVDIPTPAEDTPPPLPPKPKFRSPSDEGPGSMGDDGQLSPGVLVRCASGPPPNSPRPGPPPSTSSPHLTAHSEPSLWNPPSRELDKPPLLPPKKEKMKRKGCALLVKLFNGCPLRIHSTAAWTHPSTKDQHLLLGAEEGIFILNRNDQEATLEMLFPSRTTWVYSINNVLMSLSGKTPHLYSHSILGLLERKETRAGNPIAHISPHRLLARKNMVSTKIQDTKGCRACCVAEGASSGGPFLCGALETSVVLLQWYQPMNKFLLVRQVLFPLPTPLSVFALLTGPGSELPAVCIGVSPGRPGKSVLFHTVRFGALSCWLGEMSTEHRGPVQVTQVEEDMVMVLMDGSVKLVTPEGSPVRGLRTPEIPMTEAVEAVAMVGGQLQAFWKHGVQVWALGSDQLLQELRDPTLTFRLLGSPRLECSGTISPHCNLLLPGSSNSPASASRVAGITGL

Question: For `Cc1cc(F)c(Nc2nc(-c3ccc4c(c3)N([C@H]3C[C@@H](N5CCCCC5)C3)C(=O)C43CCN(C(=O)c4ccc(C(=O)N5CCN(c6cccc7c6C(=O)N(C6CCC(=O)NC6=O)C7=O)CC5)cc4)CC3)cc3ncn(C(C)C)c23)cc1C(=O)NC(C)C` (some centres unmarked) [Example 95, 5-({6-[1′-(4-{4-[2-(2,6-dioxopiperidin-3-yl)-1,3-dioxoisoindol-4-yl]piperazine-1-carbonyl}benzoyl)-2-oxo-1-[(1s,3s)-3-(piperidin-1-yl)cyclobutyl]spiro[indole-3,4′-piperidin]-6-yl]-3-isopropylimidazo[4,5-c]pyridin-4-yl}amino)-4-fluoro-N-isopropyl-2-methylbenzamide], which Dmax is on record?
Answer: 45 to 65%

Question: `Cc1cc(F)c(Nc2nc(-c3ccc4c(c3)N([C@H]3C[C@@H](N5CCCCC5)C3)C(=O)C43CCN(C(=O)C4CCN(C(=O)C5CCN(C(=O)CNc6cccc7c6C(=O)N(C6CCC(=O)NC6=O)C7=O)CC5)C4)CC3)cc3ncn(C(C)C)c23)cc1C(=O)NC(C)C` (some centres unmarked) [Example 49] was tested. Which Dmax did it give?
Answer: 45 to 65%

Question: For `Cc1cc(F)c(Nc2nc(-c3ccc4c(c3)N([C@H]3C[C@@H](N5CCCCC5)C3)C(=O)C43CCN(C(=O)[C@@H]4CCN(C(=O)c5cnc(N6CCN(c7cccc8c7C(=O)N(C7CCC(=O)NC7=O)C8=O)CC6)cn5)C4)CC3)cc3ncn(C(C)C)c23)cc1C(=O)NC(C)C` (stereo partly drawn) [Example 86, 5-((6-(1′-((3R)-1-(5-(4-(2-(2,6-dioxopiperidin-3-yl)-1,3-dioxoisoindolin-4-yl)piperazin-1-yl)pyrazine-2-carbonyl)pyrrolidine-3-carbonyl)-2-oxo-1-((1s,3s)-3-(piperidin-1-yl)cyclobutyl)spiro[indoline-3,4′-piperidin]-6-yl)-3-isopropyl-3H-imidazo[4,5-c]pyridin-4-yl)amino)-4-fluoro-N-isopropyl-2-methylbenzamide], which Dmax is on record?
Answer: 45 to 65%

Question: Which Dmax does the source give for `Cc1cc(F)c(Nc2nc(-c3ccc4c(c3)N([C@H]3C[C@@H](N5CCCCC5)C3)C(=O)C43CCN(C(=O)c4ccc(C(=O)N5CCN(c6ccc7c(c6)C(=O)N(C6CCC(=O)NC6=O)C7=O)CC5C)cc4)CC3)cc3ncn(C(C)C)c23)cc1C(=O)NC(C)C` (some centres unmarked) [Example 72, 5-[(6-{1′-[4-(4-{2-[2,6-dioxopiperidin-3-yl]-1,3-dioxo-2,3-dihydro-1H-isoindol-5-yl}-2-methylpiperazine-1-carbonyl)benzoyl]-2-oxo-1-[(1s,3s)-3-(piperidin-1-yl)cyclobutyl]-1,2-dihydrospiro[indole-3,4′-piperidin]-6-yl}-3-(propan-2-yl)-3H-imidazo[4,5-c]pyridin-4-yl)amino]-4-fluoro-2-methyl-N-(propan-2-yl)benzamide] here?
Answer: > 65%

Question: With `Cc1cc(F)c(Nc2nc(-c3ccc4c(c3)N([C@H]3C[C@@H](N5CCCCC5)C3)C(=O)C43CCN(C(=O)[C@H]4CC[C@@H](C(=O)N5CCC(Oc6cccc7c6C(=O)N(C6CCC(=O)NC6=O)C7=O)CC5)CC4)CC3)cc3ncn(C(C)C)c23)cc1C(=O)NC(C)C` (stereo partly drawn) [Example 96, 4-fluoro-N-isopropyl-5-[(3-isopropyl-6-{2-oxo-1-[(1s,3s)-3-(piperidin-1-yl)cyclobutyl]-1′-[(1s,4s)-4-[4-({2-[(3S)-2,6-dioxopiperidin-3-yl]-1,3-dioxoisoindol-4-yl}oxy)piperidine-1-carbonyl]cyclohexanecarbonyl]spiro[indole-3,4′-piperidin]-6-yl}imidazo[4,5-c]pyridin-4-yl)amino]-2-methylbenzamide] as the molecule, how does the Dmax read?
Answer: 45 to 65%

Question: How did the Dmax turn out when `Cc1cc(F)c(Nc2nc(-c3ccc4c(c3)N([C@H]3C[C@@H](N5CCCCC5)C3)C(=O)C43CCN(C(=O)CN4CCC5(CC4)CC(C(=O)NCCNc4cccc6c4C(=O)N(C4CCC(=O)NC4=O)C6=O)C5)CC3)cc3ncn(C(C)C)c23)cc1C(=O)NC(C)C` (some centres unmarked) [Example 46, N-(2-((2-(2,6-dioxopiperidin-3-yl)-1,3-dioxoisoindolin-4-yl)amino)ethyl)-7-(2-(6-(4-((2-fluoro-5-(isopropylcarbamoyl)-4-methylphenyl)amino)-3-isopropyl-3H-imidazo[4,5-c]pyridin-6-yl)-2-oxo-1-((1s,3s)-3-(piperidin-1-yl)cyclobutyl)spiro[indoline-3,4′-piperidin]-1′-yl)-2-oxoethyl)-7-azaspiro[3.5]nonane-2-carboxamide] was run?
Answer: 45 to 65%

Question: How did the Dmax turn out when `Cc1cc(F)c(Nc2nc(-c3ccc4c(c3)N(C3CC(N5CCCCC5)C3)C(=O)C43CCN(C(=O)[C@@H]4CCN(C(=O)[C@H]5CC[C@H](Oc6cccc7c6C(=O)N(C6CCC(=O)NC6=O)C7=O)CC5)C4)CC3)cc3ncn(C(C)C)c23)cc1C(=O)NC(C)C` (stereo partly drawn) [Example 54, 4-fluoro-2-methyl-5-[(6-{2-oxo-1′-[(3R)-1-[(1R,4R)-4-{[2-(2,6-dioxopiperidin-3-yl)-1,3-dioxo-2,3-dihydro-1H-isoindol-4-yl]oxy}cyclohexanecarbonyl]pyrrolidine-3-carbonyl]-1-[(1s,3s)-3-(piperidin-1-yl)cyclobutyl]-1,2-dihydrospiro[indole-3,4′-piperidin]-6-yl}-3-(propan-2-yl)-3H-imidazo[4,5-c]pyridin-4-yl)amino]-N-(propan-2-yl)benzamide] was run?
Answer: < 45%

Question: Which Dmax does the source give for `Cc1cc(F)c(Nc2nc(-c3ccc4c(c3)N([C@H]3C[C@@H](N5CCCCC5)C3)C(=O)C43CCN(C(=O)c4ccc(C(=O)N5C6CCC5CN(c5ccc7c(c5)C(=O)N(C5CCC(=O)NC5=O)C7=O)C6)cc4)CC3)cc3ncn(C(C)C)c23)cc1C(=O)NC(C)C` (some centres unmarked) [Example 93, 5-({6-[1′-(4-{3-[2-(2,6-dioxopiperidin-3-yl)-1,3-dioxoisoindol-5-yl]-3,8-diazabicyclo[3.2.1]octane-8-carbonyl}benzoyl)-2-oxo-1-[(1s,3s)-3-(piperidin-1-yl)cyclobutyl]spiro[indole-3,4′-piperidin]-6-yl]-3-isopropylimidazo[4,5-c]pyridin-4-yl}amino)-4-fluoro-N-isopropyl-2-methylbenzamide] here?
Answer: 45 to 65%
